{"source": "patent US4029778A", "about": "(priority 1969, dated 1977)", "key": {"[1]": {"assay": "Hepatoma 130 tumor growth inhibition and lethality, oral (Table 5)", "format": "in vivo", "settings": "in vivo, 1 × dose", "description": "(§1) The esters of the invention have shown effect in inhibiting the growth of several tumors, e.g., Ehrlich ascites, Hepatoma AH 130, lymphocytic leukemia (L1210), Walker 256 and Harding-Passey Melanoma according to the procedure of Cancer Chemotherapy National Service Center (Ref.: Cancer Chemotherapy Reports, December 1962)."}, "Hepatoma 130": {"tested_on": "Hepatoma 130", "assay": "Hepatoma 130 tumor growth inhibition and lethality, oral (Table 5)", "format": "in vivo", "settings": "1 × dose", "description": "as §1"}, "[2]": {"assay": "Harding-Passey Melanoma growth inhibition and lethality, oral (Table 5)", "format": "in vivo", "settings": "in vivo, 11 × dose", "description": "as §1"}, "Harding-Passey Melanoma": {"tested_on": "Harding-Passey Melanoma", "assay": "Harding-Passey Melanoma growth inhibition and lethality, oral (Table 5)", "format": "in vivo", "settings": "11 × dose", "description": "as §1"}, "[3]": {"assay": "Walker 256 tumor growth inhibition and lethality, oral (Table 5)", "format": "in vivo", "settings": "in vivo", "description": "as §1"}, "Walker 256": {"tested_on": "Walker 256", "assay": "Walker 256 tumor growth inhibition and lethality, oral (Table 5)", "format": "in vivo", "description": "as §1"}, "Hepatoma 130 tumor [4]": {"tested_on": "Hepatoma 130 tumor", "settings": "in vivo, ip"}, "in vivo [5]": {"assay": "in vivo", "settings": "ip"}, "Ehrlich ascites tumor [6]": {"tested_on": "Ehrlich ascites tumor", "settings": "in vivo, ip; for Lethality: 1000 mg/kg"}, "[7]": {"tested_on": "Harding-Passey Melanoma tumor"}, "Walker 256 tumor [8]": {"tested_on": "Walker 256 tumor", "settings": "in vivo"}, "Ehrlich ascites tumor [9]": {"tested_on": "Ehrlich ascites tumor", "assay": "animal or person", "settings": "ip, read-out: ED50 (Effect)"}, "Hepatoma 130 tumor [10]": {"tested_on": "Hepatoma 130 tumor", "assay": "animal or person", "settings": "ip, read-out: ED50 (Effect)"}, "Walker 256 tumor [11]": {"tested_on": "Walker 256 tumor", "assay": "animal or person", "settings": "Walker 256, ip, read-out: ED50 (Effect)"}, "tumors": {"tested_on": "tumors", "assay": "antitumor activity (statement in words)", "format": "in vivo", "procedure": "as §1\nThe esters of this invention were tested for effectiveness in inhibiting the growth of Ehrlich ascites, Hepatoma 130, lymphocytic leukemia (L 1210), and Harding-Passey Melanoma, and Walker 256 tumors. The administration was by the intraperitoneal route in each case."}, "[12]": {"tested_on": "Harding-Passey Melanoma tumor", "assay": "animal or person", "settings": "ip, read-out: ED50 (Effect)"}, "in vivo [13]": {"assay": "in vivo", "settings": "ip", "remark": "listed apart in the source"}}, "note": "Read-outs that look alike come from different tables or passages of the source."}
{"molecule": "O=C(O)CCCc1ccc(N(CCCl)CCCl)cc1", "note": "[Chlorambucil, reference compound]", "values": [{"measurement": "LD50", "setting": "[1]", "result": 55, "unit": "mg/kg"}, {"measurement": "ED50 (Effect)", "setting": "Hepatoma 130", "result": "> 31", "unit": "mg/kg"}, {"measurement": "LD50", "setting": "[2]", "result": 7, "unit": "mg/kg"}, {"measurement": "ED50 (Effect)", "setting": "Harding-Passey Melanoma", "result": 2.3, "unit": "mg/kg"}, {"measurement": "LD50", "setting": "[3]", "result": 13.5, "unit": "mg/kg"}, {"measurement": "ED50 (Effect)", "setting": "Walker 256", "result": 0.42, "unit": "mg/kg"}, {"measurement": "ED50 (Effect)", "setting": "Hepatoma 130 tumor [4]", "result": 4.3, "unit": "mg/kg"}, {"measurement": "LD50", "setting": "in vivo [5]", "result": 30, "unit": "mg/kg"}]}
{"molecule": "C[C@]12C=CC(=O)C=C1CC[C@@H]1[C@@H]2[C@@H](O)C[C@@]2(C)[C@H]1CC[C@]2(O)C(=O)CO", "note": "[Prednisolone, pregna-1,4-dien-11β,17α ,21-triol-3,20-dion, reference compound]", "values": [{"measurement": "T.I.", "setting": "Ehrlich ascites tumor [6]", "result": "> 8.3"}, {"measurement": "Lethality", "setting": "Ehrlich ascites tumor [6]", "result": "no toxicity"}, {"measurement": "T.I.", "setting": "Hepatoma 130 tumor [4]", "result": 6.6}, {"measurement": "T.I.", "setting": "[7]; in vivo, ip", "result": "< 2.5"}, {"measurement": "Effect", "setting": "[7]; in vivo, ip, 243 mg/kg", "result": "no effect"}, {"measurement": "T.I.", "setting": "Walker 256 tumor [8]; ip", "result": 3.0}, {"measurement": "ED50", "setting": "Ehrlich ascites tumor [9]", "result": 120, "unit": "mg/kg"}, {"measurement": "ED50", "setting": "Hepatoma 130 tumor [10]", "result": 118, "unit": "mg/kg"}, {"measurement": "ED50", "setting": "Walker 256 tumor [11]", "result": 214, "unit": "mg/kg"}]}
{"molecule": "Cc1ccc(C(=O)OCC(=O)[C@@]2(O)CC[C@H]3[C@@H]4CCC5=CC(=O)CC[C@]5(C)[C@H]4[C@@H](O)C[C@@]32C)cc1N(CCCl)CCCl", "note": "[hydrocortisone-21-3'-[N-bis-(β-chloroethyl)-amino]-4'-methylbenzoate]", "values": [{"measurement": "antitumor activity", "setting": "tumors", "result": "desired antitumor activity"}]}
{"molecule": "CC(=O)NC(Cc1ccc(N(CCCl)CCCl)cc1)C(=O)OCC(=O)[C@@]1(O)CC[C@H]2[C@@H]3CCC4=CC(=O)CC[C@]4(C)[C@H]3[C@@H](O)C[C@@]21C", "note": "(stereo partly drawn) [hydrocortisone-21-3'-{p-[N-bis-(β-chloroethyl)-amino]-phenyl}-2'-acetamido-propionate]", "values": [{"measurement": "antitumor activity against Walker 256 tumors", "setting": "Walker 256 tumor [8]", "result": "same activity"}]}
{"molecule": "C[C@]12CCC(=O)C=C1CC[C@@H]1[C@@H]2[C@@H](O)C[C@@]2(C)[C@H]1CC[C@]2(O)C(=O)COC(=O)C(N)Cc1ccc(N(CCCl)CCCl)cc1", "note": "(stereo partly drawn) [hydrocortisone-21-3'-{p-[N-bis-(β-chloroethyl)-amino]-phenyl}-2'-aminopropionate]", "values": [{"measurement": "antitumor activity", "setting": "tumors", "result": "desired antitumor activity"}]}
{"molecule": "C[C@]12CCC(=O)C=C1CC[C@@H]1[C@@H]2[C@@H](O)C[C@@]2(C)[C@H]1CC[C@]2(O)C(=O)COC(=O)CCCc1ccc(N(CCCl)CCCl)cc1", "note": "[hydrocortisone-21-4'-{p-[N-bis-(β-chloroethyl)-amino]-phenyl}-butyrate]", "values": [{"measurement": "antitumor activity", "setting": "tumors", "result": "desired antitumor activity"}]}
{"molecule": "C[C@]12CCC(=O)C=C1CC[C@@H]1[C@@H]2[C@@H](O)C[C@@]2(C)[C@H]1CC[C@]2(O)C(=O)COC(=O)c1ccc(N(CCCl)CCCl)cc1", "note": "[hydrocortisone-21-p-/N-bis(β -chloroethyl)-amino/-benzoate]", "values": [{"measurement": "ED50 (Effect)", "setting": "Ehrlich ascites tumor [6]", "result": 15, "unit": "mg/kg"}, {"measurement": "ED50 (Effect)", "setting": "Hepatoma 130 tumor [4]", "result": 28, "unit": "mg/kg"}, {"measurement": "ED50 (Effect)", "setting": "[7]; intraperitoneal, 11 × dose", "result": 19, "unit": "mg/kg"}]}
{"molecule": "Cc1ccc(C(=O)OCC(=O)[C@@]2(O)CC[C@H]3[C@@H]4CCC5=CC(=O)C=C[C@]5(C)[C@H]4[C@@H](O)C[C@@]32C)cc1N(CCCl)CCCl", "note": "[prednisolone-21-3'-[N-bis-(β-chloroethyl)-amino]-4'-methyl-benzoate]", "values": [{"measurement": "antitumor activity", "setting": "tumors", "result": "having the desired antitumor activity"}]}
{"molecule": "CC(=O)NC(Cc1ccc(N(CCCl)CCCl)cc1)C(=O)OCC(=O)[C@@]1(O)CC[C@H]2[C@@H]3CCC4=CC(=O)C=C[C@]4(C)[C@H]3[C@@H](O)C[C@@]21C", "note": "(stereo partly drawn) [prednisolone-21-3'-{p-[N-bis-(β-chloroethyl)-amino]-phenyl}-2'-acetamido-propionate]", "values": [{"measurement": "antitumor activity against Walker 256 tumors", "setting": "Walker 256 tumor [8]", "result": "active antitumor agent"}]}
{"molecule": "C[C@]12C=CC(=O)C=C1CC[C@@H]1[C@@H]2[C@@H](O)C[C@@]2(C)[C@H]1CC[C@]2(O)C(=O)COC(=O)C(N)Cc1ccc(N(CCCl)CCCl)cc1", "note": "(stereo partly drawn) [prednisolone-21-3'-{p-[N-bis-(β-chloroethyl)-amino]-phenyl}-2'-aminopropionate]", "values": [{"measurement": "antitumor activity", "setting": "tumors", "result": "desired antitumor activity"}]}
{"molecule": "C[C@]12C=CC(=O)C=C1CC[C@@H]1[C@@H]2[C@@H](O)C[C@@]2(C)[C@H]1CC[C@]2(O)C(=O)COC(=O)CCCc1ccc(N(CCCl)CCCl)cc1", "note": "[prednisolone-21-4'-[p-/N-bis(β-chloroethyl)-amino/-phenyl]-butyrate]", "values": [{"measurement": "LD50", "setting": "[1]", "result": 380, "unit": "mg/kg"}, {"measurement": "T.I.", "setting": "Hepatoma 130", "result": 2.5}, {"measurement": "ED50", "setting": "Hepatoma 130; read-out: ED50 (Effect)", "result": 155, "unit": "mg/kg"}, {"measurement": "LD50", "setting": "[2]", "result": 40, "unit": "mg/kg"}, {"measurement": "T.I.", "setting": "Harding-Passey Melanoma", "result": 6.7}, {"measurement": "ED50", "setting": "Harding-Passey Melanoma; read-out: ED50 (Effect)", "result": 6, "unit": "mg/kg"}, {"measurement": "LD50", "setting": "[3]", "result": 64, "unit": "mg/kg"}, {"measurement": "T.I.", "setting": "Walker 256", "result": 64}, {"measurement": "ED50", "setting": "Walker 256; Walker 256, read-out: ED50 (Effect)", "result": 1, "unit": "mg/kg"}, {"measurement": "T.I.", "setting": "Hepatoma 130 tumor [4]", "result": 45}, {"measurement": "T.I.", "setting": "[7]; intraperitoneal, 11 × dose", "result": 2.2}, {"measurement": "T.I.", "setting": "Walker 256 tumor [8]; ip", "result": 29}, {"measurement": "ED50", "setting": "Hepatoma 130 tumor [10]", "result": 5.8, "unit": "mg/kg"}, {"measurement": "ED50", "setting": "[12]", "result": 3.1, "unit": "mg/kg"}, {"measurement": "ED50", "setting": "Walker 256 tumor [11]", "result": 1.1, "unit": "mg/kg"}]}
{"molecule": "C[C@]12C=CC(=O)C=C1CC[C@@H]1[C@@H]2[C@@H](O)C[C@@]2(C)[C@H]1CC[C@]2(O)C(=O)COC(=O)c1ccc(N(CCCl)CCCl)cc1", "note": "[prednisolone-21-p-/N-bis(β-chloroethyl)-amino/-benzoate]", "values": [{"measurement": "antitumor activity", "setting": "tumors", "result": "desired antitumor activity"}, {"measurement": "ED50 (Effect)", "setting": "Ehrlich ascites tumor [6]", "result": 13, "unit": "mg/kg"}, {"measurement": "Lethality", "setting": "Ehrlich ascites tumor [6]", "result": "no toxicity"}, {"measurement": "ED50 (Effect)", "setting": "Hepatoma 130 tumor [4]", "result": 5.6, "unit": "mg/kg"}, {"measurement": "ED50 (Effect)", "setting": "[7]; intraperitoneal, 11 × dose", "result": 3.4, "unit": "mg/kg"}, {"measurement": "ED50 (Effect)", "setting": "Walker 256 tumor [8]; ip", "result": 9.6, "unit": "mg/kg"}]}
{"molecule": "C[C@]12C=CC(=O)C=C1CC[C@@H]1[C@@H]2[C@@H](O)C[C@@]2(C)[C@H]1CC[C@]2(O)C(=O)COC(=O)Cc1ccc(N(CCCl)CCCl)cc1", "note": "[prednisolone-21-p-/N-bis(β-chloroethyl)-amino/-phenylacetate]", "values": [{"measurement": "ED50 (Effect)", "setting": "Hepatoma 130 tumor [4]", "result": 27, "unit": "mg/kg"}, {"measurement": "LD50", "setting": "in vivo [5]", "result": 560, "unit": "mg/kg"}]}
{"molecule": "C[C@]12C=CC(=O)C=C1CC[C@@H]1[C@@H]2C(=O)C[C@@]2(C)[C@H]1CC[C@]2(O)C(=O)COC(=O)c1ccc(N(CCCl)CCCl)cc1", "note": "[prednisone-21-p-/N-bis(β-chloroethyl)-amino/-benzoate]", "values": [{"measurement": "ED50 (Effect)", "setting": "Ehrlich ascites tumor [6]", "result": 12, "unit": "mg/kg"}, {"measurement": "Lethality", "setting": "Ehrlich ascites tumor [6]", "result": "no toxicity"}, {"measurement": "ED50 (Effect)", "setting": "Hepatoma 130 tumor [4]", "result": 58, "unit": "mg/kg"}, {"measurement": "Lethality", "setting": "Hepatoma 130 tumor [4]; 1000 mg/kg", "result": "no toxicity"}, {"measurement": "ED50 (Effect)", "setting": "[7]; intraperitoneal, 11 × dose", "result": 18, "unit": "mg/kg"}, {"measurement": "LD50", "setting": "in vivo [13]", "result": 97, "unit": "mg/kg"}]}
